Consider five molecules from ChEMBL document CHEMBL1255267, “Reduced Susceptibility of Proteus mirabilis to triclosan” (2008).

≈ marks a conversion by molar mass, not a printed value.

Assay type in all cases: functional
The subject of assay [1] is Proteus mirabilis. In words: Antibacterial activity against Proteus mirabilis M 48 mutant after 18 hrs by Etest method.
The test system of assay [2] is Proteus mirabilis. The assay is described as follows: Antibacterial activity against Proteus mirabilis M 21 mutant after 18 hrs by Etest method.
Assay [3] concerns Proteus mirabilis. In words: Antibacterial activity against Proteus mirabilis M 55 mutant after 18 hrs by Etest method.
For assay [4], the system named is Proteus mirabilis. The assay is described as follows: Antibacterial activity against Proteus mirabilis M 26 mutant after 18 hrs by Etest method.
Assay [5] deals with Proteus mirabilis. The assay is described as follows: Antibacterial activity against Proteus mirabilis M 42 mutant after 18 hrs by Etest method.
In assay [6] the test system is Proteus mirabilis. In words: Antibacterial activity against Proteus mirabilis M 31 mutant after 18 hrs by Etest method.
Assay [7] relates to Proteus mirabilis. In words: Antibacterial activity against Proteus mirabilis NP37 after 18 hrs by Etest method.
Assay [8] concerns Proteus mirabilis. The assay is described as follows: Antibacterial activity against Proteus mirabilis NP43 after 18 hrs by Etest method.
In assay [9] the test system is Proteus mirabilis. The assay is described as follows: Antibacterial activity against Proteus mirabilis M 17 mutant after 18 hrs by Etest method.
For assay [10], the system named is Proteus mirabilis. The assay is described as follows: Antibacterial activity against Proteus mirabilis M 40 mutant after 18 hrs by Etest method.
The test system of assay [11] is Proteus mirabilis. The assay is described as follows: Antibacterial activity against Proteus mirabilis M 29 mutant after 18 hrs by Etest method.
Assay [12] has as its system Proteus mirabilis. In words: Antibacterial activity against Proteus mirabilis M 12 mutant after 18 hrs by Etest method.
The next assay deals with Escherichia coli. The assay is described as follows: Antibacterial activity against Escherichia coli 10418 after 18 hrs by Etest method.
In assay [13] the test system is Proteus mirabilis. The assay is described as follows: Antibacterial activity against Proteus mirabilis NP55 after 18 hrs by Etest method.
Assay [14] deals with Proteus mirabilis. The assay is described as follows: Antibacterial activity against Proteus mirabilis M 19 mutant after 18 hrs by Etest method.
For assay [15], the system named is Proteus mirabilis. In words: Antibacterial activity against Proteus mirabilis M 35 mutant after 18 hrs by Etest method.
The subject of assay [16] is Proteus mirabilis. The assay is described as follows: Antibacterial activity against Proteus mirabilis NP14 after 18 hrs by Etest method.
The subject of assay [17] is Proteus mirabilis. The assay is described as follows: Antibacterial activity against Proteus mirabilis M 44 mutant after 18 hrs by Etest method.
Assay [18] relates to Proteus mirabilis. In words: Antibacterial activity against Proteus mirabilis B2 after 18 hrs by Etest method.
The test system of assay [19] is Proteus mirabilis. In words: Antibacterial activity against Proteus mirabilis M 23 mutant after 18 hrs by Etest method.
The subject of assay [20] is Proteus mirabilis. In words: Effect on catheter blockage in Bladder model inoculated with Proteus mirabilis M 55 mutant.
Assay [21] deals with Proteus mirabilis. The assay is described as follows: Effect on pH of residual urine at time of catheter blockage in Bladder model inoculated with wild-type Proteus mirabilis B2.
For assay [22], the system named is Proteus mirabilis. In words: Effect on viable cells in urine at time of catheter blockage in Bladder model inoculated with Proteus mirabilis M 55 mutant.
Assay [23] concerns Proteus mirabilis. The assay is described as follows: Effect on catheter blockage in Bladder model inoculated with Proteus mirabilis M 48 mutant.
Assay [24] has as its system Proteus mirabilis. In words: Effect on pH of residual urine at time of catheter blockage in Bladder model inoculated with Proteus mirabilis M 48 mutant.
Assay [25] relates to Proteus mirabilis. In words: Effect on viable cells in urine at time of catheter blockage in Bladder model inoculated with wild-type Proteus mirabilis B2.
The test system of assay [26] is Proteus mirabilis. In words: Effect on catheter blockage in Bladder model inoculated with wild-type Proteus mirabilis B2.
Assay [27] deals with Proteus mirabilis. In words: Effect on viable cells in urine at time of catheter blockage in Bladder model inoculated with Proteus mirabilis M 48 mutant.
Assay [28] deals with Proteus mirabilis. In words: Effect on pH of residual urine at time of catheter blockage in Bladder model inoculated with Proteus mirabilis M 55 mutant.

The term MIC denotes the least concentration at which growth counts as inhibited. A higher MIC goes with a need for much substance. With `O=C1CN(/N=C/c2ccc([N+](=O)[O-])o2)C(=O)N1` [NITROFURANTOIN], the MIC turned out to be 24 µg/mL (≈ 101 µM) with Proteus mirabilis [1] (M 48, 18 h); 48 µg/mL (≈ 202 µM) against Proteus mirabilis [2] (M 21, 18 h); 48 µg/mL (≈ 202 µM) against Proteus mirabilis [3] (M 55, 18 h); 24 µg/mL (≈ 101 µM) in the assay on Proteus mirabilis [4] (M 26, 18 h); 48 µg/mL (≈ 202 µM) in the assay with Proteus mirabilis [5] (M 42, 18 h); 24 µg/mL (≈ 101 µM) against Proteus mirabilis [6] (M 31, 18 h). In addition, the MIC came to 24 µg/mL (≈ 101 µM) against Proteus mirabilis [7] (NP37, 18 h); 48 µg/mL (≈ 202 µM) in the assay with Proteus mirabilis [8] (NP43, 18 h); 12 µg/mL (≈ 50.4 µM) against Proteus mirabilis [9] (M 17, 18 h); 64 µg/mL (≈ 269 µM) against Proteus mirabilis [10] (M 40, 18 h); 16 µg/mL (≈ 67.2 µM) in the assay with Proteus mirabilis [11] (M 29, 18 h); 12 µg/mL (≈ 50.4 µM) in the assay with Proteus mirabilis [12] (M 12, 18 h). Besides, the MIC amounted to 2 µg/mL (≈ 8.4 µM) against Escherichia coli (Escherichia coli, 10418, 18 h); 64 µg/mL (≈ 269 µM) against Proteus mirabilis [13] (NP55, 18 h); 32 µg/mL (≈ 134 µM) in the assay on Proteus mirabilis [14] (M 19, 18 h); 32 µg/mL (≈ 134 µM) against Proteus mirabilis [15] (M 35, 18 h); 32 µg/mL (≈ 134 µM) against Proteus mirabilis [16] (NP14, 18 h); 32 µg/mL (≈ 134 µM) in the assay on Proteus mirabilis [17] (M 44, 18 h). The MIC was determined as 64 µg/mL (≈ 269 µM) with Proteus mirabilis [18] (B2, 18 h) and 32 µg/mL (≈ 134 µM) with Proteus mirabilis [19] (M 23, 18 h).
As for `CCn1cc(C(=O)O)c(=O)c2cc(F)c(N3CCNCC3)cc21` [NORFLOXACIN], the MIC turned out to be 0.05 µg/mL (≈ 0.157 µM) with Proteus mirabilis [1] (M 48, 18 h); 0.19 µg/mL (≈ 0.595 µM) against Proteus mirabilis [2] (M 21, 18 h); 0.05 µg/mL (≈ 0.157 µM) against Proteus mirabilis [3] (M 55, 18 h); 0.03 µg/mL (≈ 0.0939 µM) against Proteus mirabilis [4] (M 26, 18 h); 0.03 µg/mL (≈ 0.0939 µM) in the assay with Proteus mirabilis [5] (M 42, 18 h); 0.02 µg/mL (≈ 0.0626 µM) against Proteus mirabilis [6] (M 31, 18 h). For the same molecule, the MIC in the assay on Proteus mirabilis [7] (NP37, 18 h) worked out at 0.05 µg/mL (≈ 0.157 µM); in the assay on Proteus mirabilis [8] (NP43, 18 h) it was 0.05 µg/mL (≈ 0.157 µM); with Proteus mirabilis [9] (M 17, 18 h), 0.02 µg/mL (≈ 0.0626 µM); against Proteus mirabilis [10] (M 40, 18 h) it was 0.03 µg/mL (≈ 0.0939 µM); against Proteus mirabilis [11] (M 29, 18 h) it was 0.03 µg/mL (≈ 0.0939 µM); against Proteus mirabilis [12] (M 12, 18 h), 0.02 µg/mL (≈ 0.0626 µM). For the same molecule, the MIC against Escherichia coli (Escherichia coli, 10418, 18 h) stood at 0.02 µg/mL (≈ 0.0626 µM); in the assay with Proteus mirabilis [13] (NP55, 18 h), 0.05 µg/mL (≈ 0.157 µM); against Proteus mirabilis [14] (M 19, 18 h) it was 0.19 µg/mL (≈ 0.595 µM); against Proteus mirabilis [15] (M 35, 18 h), 0.03 µg/mL (≈ 0.0939 µM); with Proteus mirabilis [16] (NP14, 18 h), 0.25 µg/mL (≈ 0.783 µM); against Proteus mirabilis [17] (M 44, 18 h), 0.05 µg/mL (≈ 0.157 µM). The MIC with Proteus mirabilis [18] (B2, 18 h) was 0.05 µg/mL (≈ 0.157 µM); against Proteus mirabilis [19] (M 23, 18 h), 0.19 µg/mL (≈ 0.595 µM).
Turning to `Oc1cc(Cl)ccc1Oc1ccc(Cl)cc1Cl` [TRICLOSAN], the MIC in the assay with Proteus mirabilis [1] (M 48, 18 h) was found to be 2 µg/mL (≈ 6.91 µM); in the assay on Proteus mirabilis [2] (M 21, 18 h), 5 µg/mL (≈ 17.3 µM); against Proteus mirabilis [3] (M 55, 18 h), 40 µg/mL (≈ 138 µM); in the assay with Proteus mirabilis [4] (M 26, 18 h) it was 20 µg/mL (≈ 69.1 µM); against Proteus mirabilis [5] (M 42, 18 h), 0.8 µg/mL (≈ 2.76 µM); with Proteus mirabilis [6] (M 31, 18 h), 5 µg/mL (≈ 17.3 µM). The MIC against Proteus mirabilis [7] (NP37, 18 h) amounted to 0.1 µg/mL (≈ 0.345 µM); in the assay on Proteus mirabilis [8] (NP43, 18 h), 0.2 µg/mL (≈ 0.691 µM); in the assay on Proteus mirabilis [9] (M 17, 18 h), 40 µg/mL (≈ 138 µM); in the assay with Proteus mirabilis [10] (M 40, 18 h) it was 40 µg/mL (≈ 138 µM); against Proteus mirabilis [11] (M 29, 18 h) it was 10 µg/mL (≈ 34.5 µM); in the assay on Proteus mirabilis [12] (M 12, 18 h), 40 µg/mL (≈ 138 µM). The MIC in the assay with Escherichia coli (Escherichia coli, 10418, 18 h) came out at 0.2 µg/mL (≈ 0.691 µM); in the assay with Proteus mirabilis [13] (NP55, 18 h), 0.2 µg/mL (≈ 0.691 µM); with Proteus mirabilis [14] (M 19, 18 h) it was 40 µg/mL (≈ 138 µM); against Proteus mirabilis [15] (M 35, 18 h), 40 µg/mL (≈ 138 µM); against Proteus mirabilis [16] (NP14, 18 h), 0.2 µg/mL (≈ 0.691 µM); with Proteus mirabilis [17] (M 44, 18 h) it was 40 µg/mL (≈ 138 µM). In addition, the MIC with Proteus mirabilis [18] (B2, 18 h) is 0.2 µg/mL (≈ 0.691 µM); in the assay on Proteus mirabilis [19] (M 23, 18 h), 5 µg/mL (≈ 17.3 µM). Besides, the Time with Proteus mirabilis [20] was 44 h; with Proteus mirabilis [23], >48 h; in the assay with Proteus mirabilis [26], >48 h. Further, the pH came out at 6.28 with Proteus mirabilis [21], 6.51 in the assay with Proteus mirabilis [24] and 8.84 in the assay with Proteus mirabilis [28]. In addition, the CFU/ml with Proteus mirabilis [22] turned out to be 4.2 ×10⁷ /ml; in the assay on Proteus mirabilis [25] it was 2.07 ×10³ /ml; with Proteus mirabilis [27], 5.44 ×10⁴ /ml.
On to `COc1cc(Cc2cnc(N)nc2N)cc(OC)c1OC` [TRIMETHOPRIM], for which the MIC against Proteus mirabilis [1] (M 48, 18 h) was > 32 µg/mL; in the assay on Proteus mirabilis [2] (M 21, 18 h), > 32 µg/mL; against Proteus mirabilis [3] (M 55, 18 h), > 32 µg/mL; with Proteus mirabilis [4] (M 26, 18 h) it was > 32 µg/mL; with Proteus mirabilis [5] (M 42, 18 h), > 32 µg/mL; with Proteus mirabilis [6] (M 31, 18 h), > 32 µg/mL. Also, the MIC against Proteus mirabilis [7] (NP37, 18 h) was > 32 µg/mL; against Proteus mirabilis [8] (NP43, 18 h) it was 0.4 µg/mL (≈ 1.38 µM); in the assay with Proteus mirabilis [9] (M 17, 18 h), 0.25 µg/mL (≈ 0.861 µM); against Proteus mirabilis [10] (M 40, 18 h), > 32 µg/mL; in the assay on Proteus mirabilis [11] (M 29, 18 h), > 32 µg/mL; in the assay with Proteus mirabilis [12] (M 12, 18 h), 0.19 µg/mL (≈ 0.654 µM). Further, the MIC is 0.03 µg/mL (≈ 0.103 µM) with Escherichia coli (Escherichia coli, 10418, 18 h); > 32 µg/mL in the assay with Proteus mirabilis [13] (NP55, 18 h); > 32 µg/mL against Proteus mirabilis [14] (M 19, 18 h); > 32 µg/mL with Proteus mirabilis [15] (M 35, 18 h); > 32 µg/mL in the assay on Proteus mirabilis [16] (NP14, 18 h); > 32 µg/mL with Proteus mirabilis [17] (M 44, 18 h). The MIC was > 32 µg/mL in the assay on Proteus mirabilis [18] (B2, 18 h) and > 32 µg/mL against Proteus mirabilis [19] (M 23, 18 h).
With GENTAMICIN, the MIC amounted to 0.25 µg/mL with Proteus mirabilis [1]; 0.13 µg/mL in the assay on Proteus mirabilis [2]; 0.38 µg/mL in the assay on Proteus mirabilis [3]; 0.13 µg/mL against Proteus mirabilis [4]; 0.25 µg/mL against Proteus mirabilis [5]; 0.13 µg/mL in the assay on Proteus mirabilis [6]. In addition, the MIC against Proteus mirabilis [7] was 0.38 µg/mL; in the assay with Proteus mirabilis [8], 0.1 µg/mL; with Proteus mirabilis [9], 0.06 µg/mL; in the assay with Proteus mirabilis [10], 0.13 µg/mL; in the assay on Proteus mirabilis [11] it was 0.19 µg/mL; in the assay with Proteus mirabilis [12] it was 0.06 µg/mL. The MIC with Escherichia coli was 0.09 µg/mL; in the assay on Proteus mirabilis [13], 0.1 µg/mL; against Proteus mirabilis [14], 0.13 µg/mL; in the assay with Proteus mirabilis [15], 0.25 µg/mL; against Proteus mirabilis [16] it was 0.13 µg/mL; in the assay with Proteus mirabilis [17], 0.38 µg/mL. In addition, the values for the MIC against Proteus mirabilis [18] and in the assay on Proteus mirabilis [19] were 0.38 µg/mL and 0.09 µg/mL, respectively.
